In US6787535B2, “Indole derivatives with 5HT6 receptor affinity” (Syntex (U.S.A.) LLC, priority 2001, dated 2004) one finds melting point data, which are given here for 31 molecules.

Structures can show the parent of a compound that is named as a salt.

One may read the melting point as the temperature of the solid-liquid transition.

Molecule `CN1CCN(c2cccc3c(S(=O)(=O)c4ccc(Cl)c(Cl)c4)c[nH]c23)CC1` [compound 503, 3-(3,4-dichloro-benzenesulfonyl)-7-(4-methyl-piperazin-1-yl)-1H-indole] displayed a melting point of 196 to 203 °C.

`Cn1cc(S(=O)(=O)c2ccccc2Cl)c2cc(N3CCNCC3)ccc21` [compound 414, 3-(2-chloro-benzenesulfonyl)-1-methyl-5-piperazin-1-yl-1H-indole] gave a melting point of 249.6 to 253 °C.

`O=S(=O)(c1ccc(Cl)c(Cl)c1)c1c[nH]c2ccc(N3CCNCC3)cc12` [compound 111, 3-(3,4-dichloro-benzenesulfonyl)-5-piperazin-1-yl-1H-indole] displayed a melting point of more than 300 °C.

`CN1CCN(c2cccc3c(S(=O)(=O)c4cccc(Cl)c4)c[nH]c23)CC1` [compound 505, 3-(3-chloro-benzenesulfonyl)-7-(4-methyl-piperazin-1-yl)-1H-indole] yielded a melting point of 163 to 171 °C.

In turn, `c1ccc(Sc2c[nH]c3c(N4CCNCC4)cccc23)cc1` came in with a melting point of 300 °C.

The molecule `O=S(=O)(c1ccc(C(F)(F)F)cc1)c1c[nH]c2ccc(N3CCNCC3)cc12` [compound 203, 5-piperazin-1-yl-3-(4-trifluoromethyl-benzenesulfonyl)-1H-indole] gave a melting point of 274.9 to 280.9 °C.

Regarding `O=S(=O)(c1cccc(Cl)c1)c1c[nH]c2c(C3CCNCC3)cccc12` [compound 208, 3-(3-Chloro-benzenesulfonyl)-7-piperidin-4-yl-1H-indole], the melting point was 272.3 to 272.9 °C.

Take `Cc1ccc(S(=O)(=O)c2c[nH]c3c(N4CCNCC4)cccc23)cc1` [compound 102, 7-piperazin-1-yl-3-(toluene-4-sulfonyl)-1H-indole]: the melting point is 285 to 287 °C.

With `Cn1cc(S(=O)(=O)c2cccc(Cl)c2)c2cccc(N3CCNCC3)c21` [compound 408, 3-(3-chloro-benzenesulfonyl)-1-methyl-7-piperazin-1-yl-1H-indole], the melting point amounted to 300 °C.

In turn, `O=S(=O)(c1ccccc1C(F)(F)F)c1c[nH]c2c(N3CCNCC3)cccc12` [compound 109, 7-piperazin-1-yl-3-(2-trifluoromethyl-benzenesulfonyl)-1H-indole] registered a melting point of 186 to 187 °C.

As for `CN1CCN(c2cccc3c(S(=O)(=O)c4ccccc4)c[nH]c23)CC1` (as salt: hydrochloride) [compound 501, 3-benzenesulfonyl-7-(4-methyl-piperazin-1-yl)-1H-indole], the melting point fell in the range of 160 to 162 °C.

On to `O=S(=O)(c1ccc(F)cc1)c1c[nH]c2c(N3CCNCC3)cccc12` [compound 104, 3-(4-fluoro-benzenesulfonyl)-7-piperazin-1-yl-1H-indole], for which the melting point was 247 to 249 °C.

In turn, `O=S(=O)(c1cccc(Cl)c1)c1c[nH]c2ccc(N3CCNCC3)cc12` [compound 110, 3-(3-chloro-benzenesulfonyl)-5-piperazin-1-yl-1H-indole] gave a melting point of 192 to 197 °C.

As for `Cn1cc(S(=O)(=O)c2cccc(C(F)(F)F)c2)c2cc(N3CCNCC3)ccc21` [compound 410, 1-methyl-5-piperazin-1-yl-3-(3-trifluoromethyl-benzenesulfonyl)-1H-indole], the melting point was 235 to 240 °C.

In turn, `COc1ccc(S(=O)(=O)c2c(C)[nH]c3c(N4CCNCC4)cccc23)cc1` [compound 604, 3-(4-methoxybenzenesulfonyl)-2-methyl-7-piperazin-1-yl-1H-indole] came in with a melting point of 182 to 184 °C.

On to `CN1CCC(c2cccc3c(S(=O)(=O)c4ccc(F)cc4)c[nH]c23)CC1` [compound 510, 3-(4-fluoro-benzenesulfonyl)-7-(1-methyl-piperidin-4-yl)-1H-indole], for which the melting point lay in the range of 178 to 182 °C.

Molecule `O=S(=O)(c1nc2ccccc2s1)c1c[nH]c2c(N3CCNCC3)cccc12` [compound 114, 2-(7-piperazin-1-yl-1H-indole-3-sulfonyl)-benzothiazole] came in with a melting point of 295 °C.

`Cc1[nH]c2c(N3CCNCC3)cccc2c1S(=O)(=O)c1ccccc1` [compound 601, 3-benzenesulfonyl-2-methyl-7-piperazin-1-yl-1H-indole] displayed a melting point of 188 to 190 °C.

`Cn1cc(S(=O)(=O)c2ccc(F)cc2)c2cccc(N3CCNCC3)c21` [compound 405, 3-(4-fluoro-benzenesulfonyl)-1-methyl-7-piperazin-1-yl-1H-indole] came in with a melting point of 300 °C.

Take `Cn1cc(S(=O)(=O)c2ccccc2Cl)c2cccc(N3CCNCC3)c21` [compound 407, 3-(2-chloro-benzenesulfonyl)-1-methyl-7-piperazin-1-yl-1H-indole]: the melting point was 295 to 297 °C.

For the molecule `Cn1cc(S(=O)(=O)c2ccccc2C(F)(F)F)c2cccc(N3CCNCC3)c21` [compound 404, 1-methyl-7-piperazin-1-yl-3-(2-trifluoromethyl-benzenesulfonyl)-1H-indole], the melting point was 295 °C.

`O=S(=O)(c1ccc(Cl)cc1)c1c[nH]c2ccc(N3CCNCC3)cc12` [compound 204, 3-(4-chloro-benzenesulfonyl)-5-piperazin-1-yl-1H-indole] displayed a melting point of 282 to 286.4 °C.

For `O=S(=O)(c1ccccn1)c1c[nH]c2c(N3CCNCC3)cccc12`, the melting point was 198 to 199 °C.

Turning to `Cn1cc(S(=O)(=O)c2ccccc2)c2cccc(N3CCNCC3)c21` (as salt: hydrochloride) [compound 401, 3-benzenesulfonyl-1-methyl-7-piperazin-1-yl-1H-indole hydrochloride], the melting point is 249 to 250 °C.

In turn, `Cn1cc(S(=O)(=O)c2cc(Cl)cc(Cl)c2)c2cc(N3CCNCC3)ccc21` [compound 411, 3-(3,5-dichloro-benzenesulfonyl)-1-methyl-5-piperazin-1-yl-1H-indole] showed a melting point of 282 to 284.5 °C.

The molecule `CCN1CCN(c2cccc3c(S(=O)(=O)c4ccccc4)c[nH]c23)CC1` [compound 513, 3-benzenesulfonyl-7-(4-ethyl-piperazin-1-yl)-1H-indole] came in with a melting point of 274 to 275 °C.

`CN1CCN(c2cccc3c(S(=O)(=O)c4ccccc4C(F)(F)F)c[nH]c23)CC1` [compound 508, 7-(4-methyl-piperazin-1-yl)-3-(2-trifluoromethyl-benzenesulfonyl)-1H-indole] showed a melting point of 237.1 to 241.5 °C.

For the molecule `CN1CCN(c2cccc3c(S(=O)(=O)c4ccccc4)cn(C)c23)CC1` [compound 502, 3-benzenesulfonyl-1-methyl-7-(4-methyl-piperazin-1-yl)-1H-indole], the melting point lay in the range of 260 to 262 °C.

As to `O=S(=O)(c1cc(Cl)cc(Cl)c1)c1c[nH]c2c(N3CCNCC3)cccc12` [compound 105, 3-(3,5-dichloro-benzenesulfonyl)-7-piperazin-1-yl-1H-indole], the melting point came out at 290 °C.

Molecule `Cn1cc(S(=O)(=O)c2ccccn2)c2cccc(N3CCNCC3)c21` [compound 402, 1-methyl-7-piperazin-1-yl-3-(pyridine-2-sulfonyl)-1H-indole] gave a melting point of 297 to 298 °C.

With `O=S(=O)(c1cccc(Cl)c1Cl)c1c[nH]c2ccc(N3CCNCC3)cc12` [compound 202, 3-(2,3-dichloro-benzenesulfonyl)-5-piperazin-1-yl-1H-indole], the melting point was more than 300 °C.
